# Source: patent US20260209325A1, “SELECTIVE AND POTENT INHIBITORY ANTIBODIES OF MYOSTATIN ACTIVATION” (SCHOLAR ROCK, INC., priority 2022, published 2026)
# Values joined by “and” are separate entries in the source; they are usually repeats but may differ in a detail not shown here. Identical values can stand only once.
# How the values were obtained:
# [1] = patients with SMA, Phase 2 (TOPAZ; NCT03921528); cited from earlier work
# [2] = target: latent myostatin (Homo sapiens, UniProt O14793); details: in vivo; cited from earlier work
# [3] = semaglutide plus Ab109 in DIO mice incl. semaglutide withdrawal (Example 6); assay type: in vivo, mouse
# Description: Male C57/BL6 male mice (n=8/group) were either fed regular mouse chow (Group 1) or placed on a 60% high fat diet at six weeks of age and maintained on the 60% high fat diet until 21 weeks of age (Groups 2-8), at which time the study began (day 0). On day 0, animals in groups 2-8 were switched to a 45% high fat diet and maintained on the 45% high fat diet until the animals were terminated. […] Body weight was measured three times per week and qNMR measurements of lean mass and fat mass were obtained on the days set forth.
# Animals in groups 3 and 4 were dosed with semaglutide weekly for 14 days, then terminated. Animals in groups 5 and 6 (weight regain groups), were treated with semaglutide for 35 days, then the semaglutide treatment was ended while the myostatin activation inhibiting antibody treatment continued until the animals were terminated on day 63. The animals in Groups 7 and 8 were treated with semaglutide for 63 days, i.e., they remained on semaglutide until the study terminated on day 63.
# At termination, left and right gastrocnemius muscles were removed and frozen; the liver was weighed, one lobe was fixed, and the remainder was frozen; epididymal adipose tissue was removed and weighed; subcutaneous adipose tissue was removed and weighed; and a terminal serum bleed was obtained.
# [4] = system: leptin; test: circulating leptin, U-PLEX Metabolic Hormones Combo 1 (Example 6); assay type: in vivo, mouse; details: FIG. 14K
# Description: Circulating leptin was measured using the U-PLEX Metabolic Hormones Combo 1 (mouse) according to manufacturer's instructions (Meso Scale Diagnostics, #K15306K-2). As expected, circulating leptin was higher in animals fed the high fat diet than animals fed a standard chow.
# [5] = Ab109 with 0.01 or 0.04 mg/kg semaglutide in DIO mice (Example 9); assay type: in vivo, mouse; details: for loss in perigonadal fat pad weight: FIG. 22A; for loss in inguinal fat pads: FIG. 22B; for loss in quadriceps weight: FIG. 21A
# Description: Male C57/BL6 male mice (n=8/group) were placed on a 60% high fat diet at […] of age and maintained on the 60% high fat diet until 21 weeks of age (Groups 1-12), at which time the study began (day −7). On day −7, animals in groups 1-12 were switched to a 45% high fat diet and maintained on the 45% high fat diet until the animals were terminated. […] Body weight was measured three times per week and qNMR measurements of lean mass and fat mass were obtained pre-dose on day 0 and on days 7, 14 and 21. Fasting glucose was measured on day 18 after a 4 hour fast.
# Animals in groups 3-12 were dosed with semaglutide daily for 3 weeks, then terminated. Animals in groups 1, 3, and 4 were treated with IgG control antibody, and those in groups 2, 5-12 were treated with myostatin activation inhibiting antibody treatment, for 3 weeks.
# At termination, left gastrocnemius and quadriceps muscles were removed and frozen; the liver was weighed, one lobe was frozen; epididymal (perigonadal) adipose tissue was removed and weighed; inguinal (subcutaneous) adipose tissue was removed and weighed; and a terminal serum bleed was obtained.
# [6] = Wilding et al. 2022; cited from earlier work
# [7] = obese patients with type 2 diabetes; cited from earlier work
# [8] = system: follicle stimulating hormone (FSH); details: women; cited from earlier work
# [9] = high fat diet mice treated with metformin and antibody (Example 4); assay type: in vivo, mouse; details: monotherapy, 45% high fat diet; FIG. 12A
# Description: Male C57/BL6 mice were fed a 60% high fat diet beginning at six weeks of age. At nineteen weeks of age (day 0), the mice were switched to a 45% high fat diet for 63 days. […] These mice were further divided into groups that received either 50 mg/kg of metformin or no metformin (Table 22a).
# Body weight and food intake were monitored three times per week throughout the study. On days 7, 35, 49, and 63, body composition was determined by qNMR, and glucose, ketones, and insulin were measured. At the end of the study on day 63, body composition was determined by qNMR; glucose, ketones, and insulin were measured, gastrocnemius muscle, whole liver, epididymal, and subcutaneous adipose tissue was collected and weighed.
# Male C57/BL6 mice (n=8/group) were fed a 60% HFD until week 18, at which time they are switched to a 45% HFD for 7 days. At day 7, animals in group 3-6 were treated with 50 mg/kg/day metformin, given orally throughout the remainder of the study.
# Body weight was measured three times per week; lean mass and fat mass were measured by qNMR on days 7, 35, 49, 63, and 77; serum glucose was also measured on days 7, 35, 49, 63, and 77; serum insulin was measured on days 49, 63, and 77. A glucose tolerance test (GTT) and an insulin tolerance test (ITT) was administered between day 56 and day 63.
# [10] = type 2 diabetics, meta-analysis; cited from earlier work
compound,measurement,setting,value
apitegromab: selective myostatin inhibitor antibody that targets pro/latent myostatin and inhibits its activation,efficacy and safety,[1],shown efficacy and safety
same,circulating latent myostatin in treated subjects,[2],elevated levels of circulating latent myostatin
semaglutide [reference compound],body weight,"[3]; 45% high fat diet, semaglutide 0.04 mg/kg with hIgG or Ab109, incl. regain after withdrawal, FIG. 14A",lost weight
same,loss of lean mass while on semaglutide,[3]; semaglutide and hIgG,about 4%
same,net loss of lean mass at the end of the study,"[3]; semaglutide and hIgG, after semaglutide was stopped",2.5%
same,fat mass,"[3]; semaglutide, and regain after withdrawal with Ab109 or control IgG, FIG. 14D",induced fat mass loss
same,circulating leptin,[4],lowered circulating leptin
same,loss in lean mass,"[5]; 0.01 mg/kg semaglutide, FIG. 20B",4.7%
same,loss of lean mass,"[5]; 0.04 mg/kg semaglutide and hIgG, 3 weeks, FIG. 20A",about 9.5%
same,body weight,"[5]; 45% high fat diet, semaglutide 0.01 or 0.04 mg/kg daily, 3 weeks, FIGS. 18A-B",lost weight
same,loss in perigonadal fat pad weight,[5]; semaglutide 0.01 mg/kg,−19.1%
same,loss in inguinal fat pads,[5]; semaglutide 0.01 mg/kg,−21.4%
same,fat mass loss,"[5]; semaglutide 0.04 mg/kg alone or with Ab109, FIG. 19A, 19C",induced fat mass loss
same,loss in perigonadal fat pad weight,[5]; semaglutide 0.04 mg/kg,−45.5%
same,loss in inguinal fat pads,[5]; semaglutide 0.04 mg/kg,−47.4%
same,loss in gastrocnemius muscle weight,"[5]; semaglutide 0.01 and 0.04 mg/kg, dose of each value not stated, FIG. 21B",−16.9% and −20.3%
same,loss in quadriceps weight,[5]; semaglutide high dose (0.04 mg/kg),−7.6%
same,loss in quadriceps weight,[5]; semaglutide low dose (0.01 mg/kg),−4.8%
same,regain of prior weight loss one year after discontinuing treatment,[6],regained two-thirds of their prior weight loss
bimagrumab: an anti-ActRIIB antibody,total body fat mass and lean mass,[7],reduce total body fat mass and increase lean mass
same,follicle stimulating hormone (FSH),[8],significantly reduce follicle stimulating hormone (FSH)
"CN(C)C(=N)N=C(N)N [metformin, reference compound]",fat mass gain,[9],Neither metformin alone nor Ab109 alone showed this effect
same,effect on weight loss,[10],no effect on weight loss
